Broadly, the EC50 is the concentration giving half of the maximal effect.

Molecules are shown by their SMILES.

Data set [1] can be described thus: Stability in human liver microsomes assessed as parent compound remaining after 10 mins. The note with it: liver microsomes, read-out: Stability. It is filed as ADME, Microsome.
The target of data set [2] is T1, Nuclear receptor subfamily 1 group I member 2 (Homo sapiens, UniProt O75469).
T1 sequence (O75469 whole entry): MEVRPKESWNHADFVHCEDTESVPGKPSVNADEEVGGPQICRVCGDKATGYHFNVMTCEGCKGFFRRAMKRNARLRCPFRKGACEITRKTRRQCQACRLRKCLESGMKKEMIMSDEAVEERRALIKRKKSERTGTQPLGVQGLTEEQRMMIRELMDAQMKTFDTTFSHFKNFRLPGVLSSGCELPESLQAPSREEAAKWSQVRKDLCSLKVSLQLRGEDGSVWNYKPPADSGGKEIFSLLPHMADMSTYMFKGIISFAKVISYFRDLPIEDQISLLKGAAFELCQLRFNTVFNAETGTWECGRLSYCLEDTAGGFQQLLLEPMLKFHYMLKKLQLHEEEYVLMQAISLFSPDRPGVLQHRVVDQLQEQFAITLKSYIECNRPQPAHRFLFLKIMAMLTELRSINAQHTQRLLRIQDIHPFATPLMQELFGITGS
The experiment in a line: Transactivation of PXR (unknown origin) expressed in human HepG2 cells. The class given is cell-based.

The target in the next data set is T2, PXR (Homo sapiens, UniProt O75469).
T2 sequence (O75469 whole entry): T1 sequence (O75469 whole entry)
The experiment in a line: Transactivation of PXR (unknown origin) expressed in human HepG2 cells assessed as maximum receptor activation response relative to control. The class given is cell-based. The note with it: human HepG2 cells that express PXR, read-out: %max.

Data set [3] can be described thus: Stability in mouse liver microsomes assessed as parent compound remaining after 10 mins. The class given is ADME, Microsome. The note with it: liver microsomes, read-out: Stability. For orientation: Liver microsomes are a subcellular fraction often used to study metabolism.
The target of data set [4] is T3, Nuclear receptor ROR-alpha (Homo sapiens, UniProt P35398).
T3 sequence (P35398 whole entry): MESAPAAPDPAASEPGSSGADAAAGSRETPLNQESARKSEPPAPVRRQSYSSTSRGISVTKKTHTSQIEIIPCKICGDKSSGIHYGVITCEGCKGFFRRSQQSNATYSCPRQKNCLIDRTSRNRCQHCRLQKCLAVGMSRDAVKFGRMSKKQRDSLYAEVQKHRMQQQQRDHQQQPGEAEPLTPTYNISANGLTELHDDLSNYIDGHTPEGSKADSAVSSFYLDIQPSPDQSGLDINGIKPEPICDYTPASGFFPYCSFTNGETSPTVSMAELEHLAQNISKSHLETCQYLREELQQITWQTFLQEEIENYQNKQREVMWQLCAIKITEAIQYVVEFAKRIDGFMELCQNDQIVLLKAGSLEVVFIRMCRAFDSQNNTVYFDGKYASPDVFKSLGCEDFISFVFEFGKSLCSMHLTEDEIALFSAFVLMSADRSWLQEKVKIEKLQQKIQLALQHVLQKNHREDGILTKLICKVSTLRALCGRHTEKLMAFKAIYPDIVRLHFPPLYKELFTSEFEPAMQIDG
Briefly: Inverse agonist activity at human Gal4-fused RORalpha LBD (272 to 556 residues) expressed in human Jurkat cells measured after 18 hrs by steady-glo luciferase reporter gene assay. It is filed as cell-based. On the technique in general: Reporter assays use an easily measured gene product as a stand-in for the process of interest.

The target in data set [5] is T4, Nuclear receptor ROR-beta (Homo sapiens, UniProt Q92753).
T4 sequence (Q92753 whole entry): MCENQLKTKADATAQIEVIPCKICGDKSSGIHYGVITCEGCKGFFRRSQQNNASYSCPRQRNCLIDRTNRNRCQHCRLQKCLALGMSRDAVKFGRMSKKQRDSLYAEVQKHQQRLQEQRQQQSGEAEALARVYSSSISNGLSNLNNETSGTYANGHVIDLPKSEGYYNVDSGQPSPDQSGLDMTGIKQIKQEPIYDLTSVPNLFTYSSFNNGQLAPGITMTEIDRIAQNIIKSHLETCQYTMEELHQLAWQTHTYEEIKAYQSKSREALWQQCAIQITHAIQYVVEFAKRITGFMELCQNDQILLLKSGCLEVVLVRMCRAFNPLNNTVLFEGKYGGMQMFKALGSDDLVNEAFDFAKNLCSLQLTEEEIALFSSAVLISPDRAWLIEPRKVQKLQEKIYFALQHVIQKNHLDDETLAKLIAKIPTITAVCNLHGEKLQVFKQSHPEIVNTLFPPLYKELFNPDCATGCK
Briefly: Inverse agonist activity at human Gal4-fused RORbeta LBD (200 to 559 residues) expressed in human Jurkat cells measured after 18 hrs by steady-glo luciferase reporter gene assay. The class given is cell-based.

For data set [6], the target named is T5, Oxysterols receptor LXR-alpha (Homo sapiens, UniProt Q13133).
T5 sequence (Q13133 whole entry): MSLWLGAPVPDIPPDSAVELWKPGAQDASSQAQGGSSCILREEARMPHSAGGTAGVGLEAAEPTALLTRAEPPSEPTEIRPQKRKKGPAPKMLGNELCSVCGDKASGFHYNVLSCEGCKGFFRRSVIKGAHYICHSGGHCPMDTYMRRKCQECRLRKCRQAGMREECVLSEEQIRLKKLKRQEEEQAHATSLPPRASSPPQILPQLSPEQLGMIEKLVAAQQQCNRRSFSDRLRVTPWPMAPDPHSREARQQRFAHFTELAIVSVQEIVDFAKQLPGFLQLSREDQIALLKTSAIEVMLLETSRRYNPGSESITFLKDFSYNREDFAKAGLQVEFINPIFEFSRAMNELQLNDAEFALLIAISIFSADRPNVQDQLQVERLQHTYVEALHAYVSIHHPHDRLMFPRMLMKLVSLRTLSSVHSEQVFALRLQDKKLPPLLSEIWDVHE
Briefly: Transactivation of human GAL4-fused LXRalpha expressed in African green monkey CV1 cells. It is filed as cell-based.

For data set [7], the target named is T6, Oxysterols receptor LXR-beta (Homo sapiens, UniProt P55055).
T6 sequence (P55055 whole entry): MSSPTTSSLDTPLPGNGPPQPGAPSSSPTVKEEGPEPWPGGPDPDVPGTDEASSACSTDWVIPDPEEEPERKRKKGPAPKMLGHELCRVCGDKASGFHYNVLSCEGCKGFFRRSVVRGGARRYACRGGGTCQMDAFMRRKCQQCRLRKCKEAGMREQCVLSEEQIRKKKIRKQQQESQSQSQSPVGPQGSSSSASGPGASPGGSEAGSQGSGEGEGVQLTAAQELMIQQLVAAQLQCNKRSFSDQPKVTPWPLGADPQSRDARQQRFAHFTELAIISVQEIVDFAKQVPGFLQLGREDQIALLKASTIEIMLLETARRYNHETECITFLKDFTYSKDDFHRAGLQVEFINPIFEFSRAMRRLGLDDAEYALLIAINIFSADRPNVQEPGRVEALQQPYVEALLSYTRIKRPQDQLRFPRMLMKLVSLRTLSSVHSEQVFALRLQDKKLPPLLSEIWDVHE
The experiment in a line: Transactivation of human GAL4-fused LXRbeta expressed in African green monkey CV1 cells. It is filed as cell-based.

With `O=C([C@H]1CC[C@](F)(C(=O)O)CC1)N1CC[C@](c2ccc(C(F)(C(F)(F)F)C(F)(F)F)cc2)(S(=O)(=O)c2ccc(F)cc2)C1`, the values for the remaining at 10 min in data set [1] and in data set [3] were 100% and 70%, respectively. The 50% effective concentration (EC50) in data set [2] was over 17 µM; in data set [4] it was over 40 µM; in data set [5], over 40 µM; in data set [6], over 7.5 µM; in data set [7], over 7.5 µM. The Emax at PXR was 62%.

Consider `O=C(O)[C@H]1CC[C@](F)(C(=O)N2CC[C@](c3ccc(C(F)(C(F)(F)F)C(F)(F)F)cc3)(S(=O)(=O)c3ccc(F)cc3)C2)CC1`, for which the EC50 in data set [2] was 10.6 µM; in data set [4] it was over 40 µM; in data set [5], over 40 µM; in data set [6] it was over 7.5 µM; in data set [7], over 7.5 µM. In addition, the Emax on PXR stood at 31%.

As to `O=C(O)[C@H]1CC[C@H](C(=O)N2CC[C@](c3ccc(C(F)(C(F)(F)F)C(F)(F)F)cc3)(S(=O)(=O)c3ccc(F)cc3)C2)CC1`, the remaining at 10 min in data set [1] amounted to 97%. In addition, the EC50 in data set [4] is over 40 µM; in data set [5] it was over 40 µM; in data set [6] it was over 7.5 µM; in data set [7] it was over 7.5 µM.

Take `CCC[C@]1(C(=O)N2CC[C@](c3ccc(C(F)(C(F)(F)F)C(F)(F)F)cc3)(S(=O)(=O)c3ccc(F)cc3)C2)CC[C@H](C(=O)O)CC1`: the EC50 was over 40 µM in data set [4], over 40 µM in data set [5], over 7.5 µM in data set [6] and over 7.5 µM in data set [7].

Take `CC[C@]1(C(=O)O)CC[C@H](C(=O)N2CC[C@](c3ccc(C(F)(C(F)(F)F)C(F)(F)F)cc3)(S(=O)(=O)c3ccc(F)cc3)C2)CC1`: the remaining at 10 min in data set [1] was found to be 100%. Besides, the EC50 is over 50 µM in data set [2]; over 40 µM in data set [4]; over 40 µM in data set [5]; over 7.5 µM in data set [6]; over 7.5 µM in data set [7]. Further, at PXR, the Emax stood at 6%.

Regarding `COC(=O)[C@H]1CC[C@H](C(=O)N2CC[C@](c3ccc(C(F)(C(F)(F)F)C(F)(F)F)cc3)(S(=O)(=O)c3ccc(F)cc3)C2)CC1`, the EC50 in data set [4] is over 40 µM; in data set [5] it was over 40 µM; in data set [6], over 7.5 µM; in data set [7] it was over 7.5 µM.

With `COC1(C(=O)N2CC[C@](c3ccc(C(F)(C(F)(F)F)C(F)(F)F)cc3)(S(=O)(=O)c3ccc(F)cc3)C2)CCS(=O)(=O)CC1`, the EC50 in data set [2] was over 50 µM; in data set [4], over 40 µM; in data set [5] it was over 40 µM; in data set [6] it was over 7.5 µM; in data set [7], over 7.5 µM. Besides, the Emax at PXR is 3%.

With `C[C@]1(C(=O)O)CC[C@H](C(=O)N2CC[C@](c3ccc(C(F)(C(F)(F)F)C(F)(F)F)cc3)(S(=O)(=O)c3ccc(F)cc3)C2)CC1`, the remaining at 10 min was found to be 97% in data set [1] and 93% in data set [3]. Moreover, the EC50 is over 50 µM in data set [2]; over 40 µM in data set [4]; over 40 µM in data set [5]; over 7.5 µM in data set [6]; over 7.5 µM in data set [7]. For the same molecule, at PXR, the Emax was found to be 18%.

For the molecule `O=C(O)[C@H]1[C@@H]2C[C@@H](C(=O)N3CC[C@](c4ccc(C(F)(C(F)(F)F)C(F)(F)F)cc4)(S(=O)(=O)c4ccc(F)cc4)C3)C[C@@H]21`, in data set [1], the remaining at 10 min worked out at 100%. Also, the concentration for a half-maximal effect (EC50) was over 50 µM in data set [2]; over 40 µM in data set [4]; over 40 µM in data set [5]; over 7.5 µM in data set [6]; over 7.5 µM in data set [7]. Besides, on PXR, the Emax was 15%.

For `O=C(O)C12CCC(C(=O)N3CC[C@](c4ccc(C(F)(C(F)(F)F)C(F)(F)F)cc4)(S(=O)(=O)c4ccc(F)cc4)C3)(CC1)C2`, the half-maximal effective concentration (EC50) in data set [4] is over 40 µM; in data set [5], over 40 µM; in data set [6] it was over 7.5 µM; in data set [7] it was over 7.5 µM.

As for `O=C(N1CC[C@](c2ccc(C(F)(C(F)(F)F)C(F)(F)F)cc2)(S(=O)(=O)c2ccc(F)cc2)C1)C12CCC(C(=O)O)(CC1)OC2`, the EC50 in data set [2] is over 50 µM; in data set [4], over 40 µM; in data set [5], over 40 µM; in data set [6], over 7.5 µM; in data set [7], over 7.5 µM. Besides, the Emax at PXR came out at 5%.

With `O=C([C@H]1CC[C@@](F)(C(=O)O)CC1)N1CC[C@](c2ccc(C(F)(C(F)(F)F)C(F)(F)F)cc2)(S(=O)(=O)c2ccc(F)cc2)C1`, the values for the remaining at 10 min in data set [1] and in data set [3] were 82% and 94%, respectively. Further, the 50% effective concentration (EC50) in data set [2] was over 22 µM; in data set [4], over 40 µM; in data set [5], over 40 µM; in data set [6], over 7.5 µM; in data set [7], over 7.5 µM. In addition, at PXR, the Emax worked out at 69%.

For `CC1(C(=O)N2CC[C@](c3ccc(C(F)(C(F)(F)F)C(F)(F)F)cc3)(S(=O)(=O)c3ccc(F)cc3)C2)CCS(=O)(=O)CC1`, the 50% effective concentration (EC50) was over 50 µM in data set [2]; over 40 µM in data set [4]; over 40 µM in data set [5]; over 7.5 µM in data set [6]; over 7.5 µM in data set [7]. In addition, the Emax on PXR was determined as 10%.

With `COC[C@]1(C(=O)N2CC[C@](c3ccc(C(F)(C(F)(F)F)C(F)(F)F)cc3)(S(=O)(=O)c3ccc(F)cc3)C2)CC[C@H](C(=O)O)CC1`, the remaining at 10 min in data set [1] was found to be 100%; in data set [3] it was 88%. In addition, the concentration for a half-maximal effect (EC50) was over 50 µM in data set [2]; over 40 µM in data set [4]; over 40 µM in data set [5]; over 7.5 µM in data set [6]; over 7.5 µM in data set [7]. For the same molecule, the Emax at PXR was found to be 7%.

In the case of `CO[C@]1(C(=O)N2CC[C@](c3ccc(C(F)(C(F)(F)F)C(F)(F)F)cc3)(S(=O)(=O)c3ccc(F)cc3)C2)CC[C@H](C(=O)O)CC1`, the remaining at 10 min in data set [1] came to 82%; in data set [3], 95%. Further, the EC50 was over 18 µM in data set [2]; over 40 µM in data set [4]; over 40 µM in data set [5]; over 7.5 µM in data set [6]; over 7.5 µM in data set [7]. The Emax on PXR was 94%.

The record behind these values is ChEMBL document CHEMBL4387773, “Identification of potent, selective and orally bioavailable phenyl ((R)-3-phenylpyrrolidin-3-yl)sulfone analogues as RORγt inverse agonists” (Bioorg Med Chem Lett, 2019).
